In a melting point compilation (Tetko et al.; mined from patent text by program, amines drawn as free bases though some values may be those of a salt):

| Structure (SMILES) | melting point [°C] |
| --- | --- |
| CC(C)(C)OC(=O)N1CC(O)C(N2CCC(Cc3ccc(Cl)cc3)CC2)C1 (stereo not given) | 99 to 102 |
| N#Cc1c(Br)c(-c2ccc(Cl)cc2)n(C(=O)c2ccccc2)c1Cl | 179 to 181 |
| N#CC1(C#N)C2CC(C3OC32)C1(Cl)Cl (stereo not given) | 229 |
| O=C(NC(CCC(=O)N1CCCC1C(=O)O)C(=O)O)c1ccccc1 (stereo not given) | 102 to 104 |
| CCc1onc(-c2ccccc2)c1C(=O)NCCCN1CCN(c2ccc(F)cc2OCC(F)(F)F)CC1 | 115 to 117 |
| CC(C)C(S)C(=O)NC1(C(=O)NC(Cc2ccc(-c3ccc(F)cc3)cc2)C(=O)O)CCCC1 (stereo not given) | 196 to 198 |
| COc1cccc(F)c1COC1(C(F)(F)F)CN(C)C(=O)Nc2ccc(Cl)cc21 (stereo not given) | 172 to 174 |
| COc1ccc(-c2ccc(-c3nc(N)nc(N)n3)cc2)cc1 | > 260 |
| Cc1cc(C(=N)NO)ccc1-c1cccc(-c2nc3cc(C(=N)NO)ccc3[nH]2)c1 | 295 to 297 |
| COC(=O)c1nc(C)n2c1CNC(c1ccccc1)c1cc(Cl)ccc1-2 (stereo not given) | 233 to 235 |
| COc1ccc(C)c(N2CCN(C(=O)N(C)c3cc(C)c(C)nc3OC)CC2)c1 | 91 to 93 |
| Nc1nnc(SCCCCc2ccccc2)s1 | 111 |
| Cc1c(-c2ccc(F)cc2)nc(-c2ccccc2)n1C(C)C | 161 to 162 |
| COc1ccc(C=CC(=O)Nc2cnc3cc(C)c(C)cc3c2-c2ccccc2Cl)cc1OC | 210 to 211 |
| CCOC(=O)c1ccc(C(F)(F)F)c(N(C)C(C)=O)n1 | 145 to 146 |
| NC(=O)c1cc(F)cc(-c2cccc3cc(Cc4cc(F)cc(Cl)c4)sc23)c1 | 186 to 187 |
| CC(=O)OC1=CC2=CCC3C(CCC4(C)C(OC(C)=O)CCC34)C2CC1 (stereo not given) | 165 to 171 |
| O=C1[C@H]2CCC[C@H]2Nc2ccccc2N1Cc1ccc2ccccc2c1 (relative stereo) | 148 |

| Structure (SMILES) | melting point [°C] |
| --- | --- |
| CNc1nc(C(C)c2ccc(-c3ccc(F)cc3)c(F)c2)c(C(=O)O)s1 (stereo not given) | 195 to 196 |
| CC(=O)Nc1nc(=O)n(C(=O)c2ccc(C)cc2)cc1F | 147 to 148 |
| N#Cc1cc(Cl)ccc1Oc1cc(N2CCOCC2)c(F)cc1O | 149 to 151 |
| Cc1oc2c(NC(=O)c3c(C(=O)OC(C)C)cccc3[N+](=O)[O-])cccc2c1C(C)(C)O | 118 to 120 |
| Cc1csc2nc(S(=O)(=O)Nc3ccccc3Cl)nn12 | 172 to 174 |
| CCC1COC(=NO)C(=O)N1C (stereo not given) | 168 to 170 |
| CCOC(=O)c1cc2c(cn1)[nH]c1ccc([N+](=O)[O-])cc12 | 320 to 325 |
| COc1ccc(Oc2ccc(C(=O)CCC#N)cc2)cc1 | 88 |
| CCc1[nH]c2cccc3c2c1CC1C3CC(NC(=O)N(CC)CC)CN1C (stereo not given) | 165 to 168 |
| CC(C)(C)c1cc(Cl)cc(CO[C@H]2CCCN(Cc3nc(=O)[nH][nH]3)[C@H]2c2ccccc2)c1 | 181 to 182 |
| ON=C1CCn2c1cc1ccccc12 | > 220 |
| COC(=O)c1ccccc1-c1nn[nH]n1 | 132 to 135 |
| CC1(C)CCc2c1ccc1c2CCc2cc(O)ccc2-1 | 152 to 153 |
| CC[C@H]1C(=O)N(S(=O)(=O)c2ccc3ccccc3c2)[C@H]2CCN(C(=O)OCc3ccccc3)[C@H]12 (relative stereo) | 156 |
| COc1ccc(-c2ccc(-c3ccc(C)cc3)s2)s1 | 108 to 111 |
| O=C(O)CCc1sc(-c2ccccc2)nc1-c1ccc(Cl)cc1 | 142 to 143 |
| CCOc1cc(C(=CC#N)c2ccc3c(c2)nnn3C)ccc1OC | 180 to 182 |
| O=C(CC1CCCC1)c1ccc[nH]1 | 49 to 51 |

The next lines start with the values.

| melting point [°C] | Structure (SMILES) |
| --- | --- |
| 131 to 134 | CCOC(=O)N1CCN(c2cc3nc(C(C)(C)C)sc3cc2N=C=S)CC1 |
| 196 to 198 | Cc1nc(-c2ccc(C(=O)N3Cc4cccnc4Nc4ccccc43)c(Cl)c2)n[nH]1 |
| 231 | O=C(NC(=O)c1c(F)cccc1F)Nc1ccc2c(c1)C(F)(F)OC(F)(F)O2 |
| 212 to 216 | N#Cc1ccc(Oc2cc3c(cc2Cl)C=C(C(=O)O)C(C(F)(F)F)O3)cc1 (stereo not given) |
| 94 to 95 | O=Cc1cnn(-c2c(Cl)cc(C(F)(F)F)cc2Cl)n1 |
| 98 to 100 | CC(=O)N1CCc2ccc(N)cc2C1 |
| 202 to 205 | CC(=O)Nc1nonc1-c1nc2ccccc2n1CC(=O)c1ccc(Cl)cc1 |
| 150 to 151 | CCC1(CC)NC(=O)Oc2ccc(-c3cccc(Cl)c3)cc21 |
| 185 | CNC(=O)c1ccccc1Nc1nc(Nc2ccc3c(c2)CCOCC3)ncc1Cl |
| 144 to 145 | C/C=C(/C)c1ccc2c(c1)C(=O)N(c1ccc3c(ccn3C)c1)C2 |
| 123 to 124 | CCCCC[C@@H](CNC(=O)Nc1c(OC(C)C)c(C)nn1C)c1cccc2c1OCO2 |
| 82 to 84 | CC(C)(C)c1ccc2c(c1)[C@H]1Cc3ccccc3[C@@]1(C)N2 (relative stereo) |
| 62 to 64 | CCOC(=O)COc1ccc(OCc2ccccc2)cc1OCc1ccccc1 |
| 59 to 61 | CCSCc1c(CCN(C)C)[nH]c2ccccc12 |
| 109 to 110 | COC=C(C(=O)OC)c1ccccc1Oc1ccn(-c2ccc(Cl)cc2)n1 |
| 207 to 209 | O=C(Nc1ccc(NS(=O)(=O)c2ccc(Cl)c(Cl)c2)cc1)Nc1ccc([N+](=O)[O-])cc1 |
| 96 to 97 | Fc1cccc2c(CCc3ccsc3)ccnc12 |

| melting point [°C] | Structure (SMILES) |
| --- | --- |
| 178 | CS(=O)(=O)N1CCN(C(=O)Cl)C1=O |
| 103 to 105 | COc1ccc(C(O)c2ccc(OC)c(OCc3ccccc3)c2)cc1OCc1ccccc1 |
| 82 to 84 | CN1C(=O)c2ccccc2OC1C(Cl)(Cl)Cl (stereo not given) |
| 166 to 167 | CC(=O)Nc1cc(CN2CCCCC2)c(O)c2c1CCCC2 |
| 246 to 249 | O=S1(=O)CC(=Cc2ccc(Cl)cc2)C2=NN(c3ccccc3)C(c3ccc(Cl)cc3)C2C1 (stereo not given) |
| 128 to 131 | CCOC(=O)C(=CNc1ccc(COC(C)=O)cc1I)C(=O)OCC |
| 155 to 156 | Cc1c(SCCCSc2ccc3ncc([N+](=O)[O-])n3n2)ccnc1C(S)c1nc2cc(S(C)(=O)=O)ccc2[nH]1 (stereo not given) |
| 145 to 146 | O=C(NO)c1ccc(CNC(=O)c2[nH]c(-c3ccccc3)cc2-c2cccc(Br)c2)cc1 |
| 92 to 93 | COc1ccc(SCc2c(C(C)C)nc(C(C)C)c(CO)c2-c2ccc(F)cc2)cc1 |
| 137 to 139 | CCOC(=O)C1=C(c2ccccc2)N(c2ccccc2)C(=O)C1C(=O)c1ccccc1 (stereo not given) |
| 90 to 92 | COc1ccc(Cc2nc3cccc(NCc4cccnc4)c3o2)cc1OC1CCCC1 |
| 140 to 142 | CCCc1nc2c(N)nc3ccccc3c2s1 |
| 237 to 238 | O=C(O)CCC(=O)c1ccc(NC(=O)CCN2CCC(c3ccccc3)CC2)cc1 |
| 210 to 212 | CCNc1nc(CC)c(C(=O)c2ccc(N)c([N+](=O)[O-])c2)s1 |
| 101 to 102 | O=C1NC(=O)C2(O1)C(=O)N(Cc1ccc(Cl)c(Cl)c1)c1c(F)cccc12 (stereo not given) |
| 140 | CC(=O)NC1=C(c2cccc(C(F)(F)F)c2)C(=O)OC1 |
| 187 to 190 | O=C(O)CCCc1ccc(-c2ccc(Cl)cc2)cc1 |
